One may read the inhibition as the relative decrease from the control value, in per cent. Broadly, the pIC50 is −log10 of the IC50, conventionally taken in molar units. What is called IC50 is the midpoint of a concentration-inhibition curve. A low value points to greater potency.

pIC50: −log10 of the molar value. Calls of active or inactive are those of the source. The rule behind the calls is not given here.

Assay [1] deals with T1, Histone deacetylase (Homo sapiens) (UniProt Q13547+O15379+Q9UBN7+Q92769+Q9UQL6+Q8WUI4+Q9BY41+Q96DB2+P56524+Q9UKV0+Q969S8). As to the kind of experiment: Inhibition of HDAC (unknown origin) at 50 uM. It counts as protein assay.
The subject of assay [2] is HL-60. Kind of assay: Induction of apoptosis in human HL60 cells assessed as loss of mitochondrial membrane potential in P5 quadrant at 5 uM by Rhodamine123 assay (reference value: 3.4%). The class given is functional.
The nature of assay [3]: Cytotoxicity against human FR2 cells. The class given is cell-based.
Assay [4] is described as follows: Cytotoxicity against human HCT116 cells. The conditions noted are these: HCT-116. It counts as functional, cell-based.
In assay [5] the target is Histone deacetylase. As to the kind of experiment: Inhibition of HDAC (unknown origin). The class given is protein assay, Homo sapiens.
Assay [6] is described as follows: Cell cycle arrest in human HL60 cells assessed as accumulation at G2/M phase at 1 uM by propidium iodide staining-based flow cytometry (reference value: 21.3%). It counts as functional. The settings on record: HL-60. (Flow cytometry measures light scatter and fluorescence of single cells or particles in a stream.)
Assay [7] deals with T1, Histone deacetylase (Homo sapiens). Kind of assay: Inhibition of HDAC (unknown origin) at 30 uM. It counts as protein assay.
Assay [8] in a line: Cell cycle arrest in human HL60 cells assessed as accumulation at sub-G1 phase at 5 uM by propidium iodide staining-based flow cytometry (reference value: 2.1%). It counts as functional. The conditions noted are these: HL-60.
Assay [9] deals with T1, Histone deacetylase (Homo sapiens). Kind of assay: Inhibition of HDAC (unknown origin) at 20 uM. The class given is protein assay.
The subject of assay [10] is HL-60. As to the kind of experiment: Induction of apoptosis in human HL60 cells assessed as loss of mitochondrial membrane potential in P5 quadrant at 1 uM by Rhodamine123 assay (reference value: 3.4%). The class given is functional.
In assay [11] the test system is A549. Kind of assay: Cytotoxicity against human A549 cells. It counts as functional, cell-based.
Assay [12] can be described thus: Cell cycle arrest in human HL60 cells assessed as accumulation at sub-G1 phase at 1 uM by propidium iodide staining-based flow cytometry (reference value: 2.1%). It counts as functional. The settings on record: HL-60.
The subject of assay [13] is MCF7. As to the kind of experiment: Cytotoxicity against human MCF7 cells. The class given is functional, cell-based.
The nature of assay [14]: Cell cycle arrest in human HL60 cells assessed as accumulation at G2/M phase at 5 uM by propidium iodide staining-based flow cytometry (reference value: 21.3%). The class given is functional. The conditions noted are these: HL-60.
Assay [15] in a line: Cytotoxicity against human MIAPaCa2 cells. The conditions noted are these: MIA PaCa-2. The class given is functional, cell-based.
The nature of assay [16]: Cytotoxicity against human HL60 cells. The conditions noted are these: HL-60. The class given is functional, cell-based.
Assay [17] concerns the target T1, Histone deacetylase (Homo sapiens). As to the kind of experiment: Inhibition of HDAC (unknown origin) at 10 uM. The class given is protein assay.
Assay [18] can be described thus: Cell cycle arrest in human HL60 cells assessed as accumulation at S phase at 5 uM by propidium iodide staining-based flow cytometry (reference value: 17.3%). The class given is functional. The settings on record: HL-60.
The nature of assay [19]: Cell cycle arrest in human HL60 cells assessed as accumulation at G1 phase at 1 uM by propidium iodide staining-based flow cytometry (reference value: 58.9%). The class given is functional. The settings on record: HL-60.
The nature of assay [20]: Cell cycle arrest in human HL60 cells at 5 to 10 uM by propidium iodide staining-based flow cytometry. The class given is functional. The conditions noted are these: HL-60.
The nature of assay [21]: Cell cycle arrest in human HL60 cells assessed as accumulation at G1 phase at 5 uM by propidium iodide staining-based flow cytometry (reference value: 58.9%). The class given is functional. The settings on record: HL-60.
In assay [22] the test system is HL-60. As to the kind of experiment: Induction of apoptosis in human HL60 cells assessed as loss of mitochondrial membrane potential in P4 quadrant at 5 uM by Rhodamine123 assay (reference value: 96.6%). The class given is functional.
The test system of assay [23] is HL-60. As to the kind of experiment: Induction of apoptosis in human HL60 cells assessed as loss of mitochondrial membrane potential in P4 quadrant at 1 uM by Rhodamine123 assay (reference value: 96.6%). The class given is functional.
The target in assay [24] is T1, Histone deacetylase (Homo sapiens). Kind of assay: Inhibition of HDAC (unknown origin) at 1 uM. It counts as protein assay.
Assay [25] in a line: Cell cycle arrest in human HL60 cells assessed as accumulation at S phase at 1 uM by propidium iodide staining-based flow cytometry (reference value: 17.3%). It counts as functional. The conditions noted are these: HL-60.

Regarding `C[C@H]1[C@H](C)CC[C@]2(C)CC[C@]3(C)C(=CC(=O)[C@@H]4[C@@]5(C)CC[C@@H](O)[C@](C)(NC(=O)CCCC(=O)NO)[C@@H]5CC[C@]43C)[C@H]12`, the inhibition in assay [1] worked out at 88%; in [7], 86%; in [9], 70%; in assay [17], 65%; in assay [24], 23%. In addition, the Activity in assay [2] is 96.4%; in [6], 10.7%; in [8] it was 92.2%; in assay [10] it was 6.7%; in assay [12] it was 6.1%; in [14], 7.1%. The Activity in assay [18] is 0.7%; in assay [19] it was 74.5%; in assay [21], 7.2%; in [22] it was 3.6%; in assay [23], 93.3%; in assay [25], 8%. Moreover, the pIC50 is 5.72 in assay [3]; 4.82 in assay [4]; 4.89 in [11]; 5.15 in assay [13]; 4.82 in assay [15]; 5.80 in assay [16]. The same molecule returned an IC50 in assay [5] of 6 µM. Besides, the result in assay [20] was Active.
In the case of `C[C@H]1[C@H](C)CC[C@]2(C)CC[C@]3(C)C(=CC[C@@H]4[C@@]5(C)CC[C@@H](O)[C@](C)(NC(=O)CCCCCCC(=O)NO)[C@@H]5CC[C@]43C)[C@H]12`, the inhibition in [1] turned out to be 56%; in assay [7], 50%. The Activity is 29.8% in assay [2]; 16.8% in assay [6]; 4.5% in assay [8]; 3.2% in assay [10]; 7.4% in [12]; 18.6% in assay [14]. In addition, the Activity was determined as 15.7% in assay [18]; 57.8% in assay [19]; 60.6% in assay [21]; 70.2% in assay [22]; 96.8% in [23]; 16.8% in assay [25]. In addition, the negative logarithm of the IC50 (pIC50) in [3], in assay [4], in assay [11], in [13], in assay [15] and in [16] was less than 4.70 each time. The same molecule gave an IC50 in [5] of 30 µM.
Take `C[C@H]1[C@H](C)CC[C@]2(C)CC[C@]3(C)C(=CC(=O)[C@@H]4[C@@]5(C)CC[C@@H](O)[C@](C)(NC(=O)CCCCCCC(=O)NO)[C@@H]5CC[C@]43C)[C@H]12`: the figures for the inhibition in [1] and in assay [7] were 39% and 12%, respectively. Besides, the pIC50 was 5.37 in assay [3]; 5.28 in [4]; 5.16 in assay [11]; 5.40 in assay [13]; 5.06 in [15]; 5.52 in assay [16]. In addition, the IC50 in assay [5] is more than 50 µM.
As to `C[C@H]1[C@H](C)CC[C@]2(C)CC[C@]3(C)C(=CC(=O)[C@@H]4[C@@]5(C)CC[C@@H](O)[C@](C)(NC(=O)CCCCCCCC(=O)NO)[C@@H]5CC[C@]43C)[C@H]12`, the inhibition came out at 52% in [1] and 31% in assay [7]. Moreover, the pIC50 in [3] was less than 4.70; in [4] it was 4.92; in [11], less than 4.70; in assay [13], 4.96; in [15], less than 4.70; in assay [16], less than 4.70. The same molecule gave an IC50 in assay [5] of 48 µM.
For `O=C(CCCCCCC(=O)Nc1ccccc1)NO` [VORINOSTAT], the Activity stood at 17.1% in assay [6]; 4% in assay [10]; 2.8% in [12]; 65.3% in assay [19]; 96% in [23]; 14% in assay [25].
